Measured values taken from US20020069423A1 (priority 2000, published 2002).

Tests used:
PrP^ac [1] = target: PrP^ac (Mus musculus, UniProt P04925); conditions: cell culture; not tested in animal models; cited from earlier work
PrP^ac [2] = target: PrP^ac (Mesocricetus auratus, UniProt P04273); conditions: scrapie-infected hamsters, controlled study; cited from earlier work
[3] = system: untransfected bovine fetal fibroblasts (BFF cells); format: cell-based

PrP^ac (Mus musculus, UniProt P04925), sequence (P04925 23-230 limits assumed): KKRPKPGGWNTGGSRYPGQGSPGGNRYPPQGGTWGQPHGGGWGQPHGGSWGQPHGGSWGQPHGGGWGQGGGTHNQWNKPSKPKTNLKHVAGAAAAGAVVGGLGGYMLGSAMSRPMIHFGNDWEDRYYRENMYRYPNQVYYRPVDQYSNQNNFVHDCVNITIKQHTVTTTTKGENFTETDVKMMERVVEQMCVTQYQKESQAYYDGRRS
PrP^ac (Mesocricetus auratus, UniProt P04273), sequence (P04273 23-231 limits assumed): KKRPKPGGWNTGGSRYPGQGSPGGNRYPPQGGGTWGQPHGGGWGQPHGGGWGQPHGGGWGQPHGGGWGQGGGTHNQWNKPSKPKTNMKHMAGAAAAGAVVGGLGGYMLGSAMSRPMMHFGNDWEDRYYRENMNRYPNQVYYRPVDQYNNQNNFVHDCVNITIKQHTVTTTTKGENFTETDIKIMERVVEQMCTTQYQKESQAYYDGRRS

pentosan polysulfate
effect on accumulation of PrP^ac (PrP^ac [1]): prevent accumulation of PrP^ac

C[C@@H]1[C@H](O)[C@@H](C)/C=C/C=C/C=C/C=C/C=C/C=C/C=C/[C@H](O[C@@H]2O[C@H](C)[C@@H](O)[C@H](N)[C@@H]2O)C[C@@H]2O[C@](O)(C[C@@H](O)C[C@@H](O)[C@H](O)CC[C@@H](O)C[C@@H](O)CC(=O)O[C@H]1C)C[C@H](O)[C@H]2C(=O)O [amphotericin B]
effect on accumulation of PrP^ac (PrP^ac [2]): delayed the accumulation of PrP^ac

Nc1c(/N=N/c2ccc(-c3ccc(/N=N/c4cc(S(=O)(=O)O)c5ccccc5c4N)cc3)cc2)cc(S(=O)(=O)O)c2ccccc12 [Congo red]
effect on accumulation of PrP^ac (PrP^ac [1]): prevent accumulation of PrP^ac

CN[C@@H]1[C@@H](O)[C@@H](O[C@@H]2[C@@H](O)[C@H](O[C@H]3O[C@H]([C@@H](C)O)[C@@H](O)[C@H](O)[C@H]3N)[C@@H](N)C[C@H]2N)OC[C@]1(C)O [G418, geneticin (G418)]
concentration sufficient to kill non-neomycin containing BFF cells but allow rapid growth of BFF cells with transfected neomycin gene [3]: 400 µg/mL | concentration that will sufficiently kill non-neomycin containing BEF cells but allow proliferation of cells with transfected neomycin gene [3]: 400 µg/mL | lag time in drug selection [3]: approximately 3 days | time of drug selection until BFF cells were dead [3]: ≤ 3 days
